Where a SMILES comes first, the peptide text is derived from it. Bridges are numbered along the chain shown (N, C = ends).
Experiments:
[1] = target: Neuronal acetylcholine receptor; alpha3/beta2 (Homo sapiens, UniProt P17787+P32297); test: Inhibition of nAChR alpha3beta2 (unknown origin) by electrophysiology assay; format: protein-complex assay
[2] = target: T1, Neuronal acetylcholine receptor; alpha3/beta4 (Homo sapiens, UniProt P30926+P32297); test: Inhibition of alpha3beta4 (unknown origin) by electrophysiology assay; format: protein-complex assay
T1 sequence (P30926 whole entry): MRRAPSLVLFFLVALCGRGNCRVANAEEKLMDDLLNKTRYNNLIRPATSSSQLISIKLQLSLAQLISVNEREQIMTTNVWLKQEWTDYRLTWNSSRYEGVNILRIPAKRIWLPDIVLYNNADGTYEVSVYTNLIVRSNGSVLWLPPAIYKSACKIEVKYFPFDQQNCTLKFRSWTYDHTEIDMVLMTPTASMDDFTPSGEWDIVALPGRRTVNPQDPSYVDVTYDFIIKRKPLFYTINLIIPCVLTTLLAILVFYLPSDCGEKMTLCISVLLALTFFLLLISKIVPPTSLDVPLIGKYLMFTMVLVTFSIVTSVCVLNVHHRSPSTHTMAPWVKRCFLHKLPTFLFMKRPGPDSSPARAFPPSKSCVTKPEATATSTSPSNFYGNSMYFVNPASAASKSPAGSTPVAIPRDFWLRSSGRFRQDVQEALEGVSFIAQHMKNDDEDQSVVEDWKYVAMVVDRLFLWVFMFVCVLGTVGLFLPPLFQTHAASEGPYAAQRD
T1 sequence (P32297 whole entry): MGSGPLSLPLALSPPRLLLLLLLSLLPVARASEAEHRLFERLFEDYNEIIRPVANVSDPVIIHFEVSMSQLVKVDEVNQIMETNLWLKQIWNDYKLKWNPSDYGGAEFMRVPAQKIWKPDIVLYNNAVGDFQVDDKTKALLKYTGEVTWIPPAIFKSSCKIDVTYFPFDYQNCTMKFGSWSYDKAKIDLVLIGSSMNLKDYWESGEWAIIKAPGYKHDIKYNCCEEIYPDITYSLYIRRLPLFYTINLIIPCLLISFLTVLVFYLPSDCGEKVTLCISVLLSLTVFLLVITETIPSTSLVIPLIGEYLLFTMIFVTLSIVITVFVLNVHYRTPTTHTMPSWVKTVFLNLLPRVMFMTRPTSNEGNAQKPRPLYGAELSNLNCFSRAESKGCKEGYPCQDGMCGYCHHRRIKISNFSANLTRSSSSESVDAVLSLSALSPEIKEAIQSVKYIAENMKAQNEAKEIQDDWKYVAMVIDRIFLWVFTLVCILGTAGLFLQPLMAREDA

[3] = target: T2, Neuronal acetylcholine receptor subunit alpha-7 (Homo sapiens, UniProt P36544); test: Inhibition of nAChR alpha7 (unknown origin) by electrophysiology assay
T2 sequence (P36544 whole entry): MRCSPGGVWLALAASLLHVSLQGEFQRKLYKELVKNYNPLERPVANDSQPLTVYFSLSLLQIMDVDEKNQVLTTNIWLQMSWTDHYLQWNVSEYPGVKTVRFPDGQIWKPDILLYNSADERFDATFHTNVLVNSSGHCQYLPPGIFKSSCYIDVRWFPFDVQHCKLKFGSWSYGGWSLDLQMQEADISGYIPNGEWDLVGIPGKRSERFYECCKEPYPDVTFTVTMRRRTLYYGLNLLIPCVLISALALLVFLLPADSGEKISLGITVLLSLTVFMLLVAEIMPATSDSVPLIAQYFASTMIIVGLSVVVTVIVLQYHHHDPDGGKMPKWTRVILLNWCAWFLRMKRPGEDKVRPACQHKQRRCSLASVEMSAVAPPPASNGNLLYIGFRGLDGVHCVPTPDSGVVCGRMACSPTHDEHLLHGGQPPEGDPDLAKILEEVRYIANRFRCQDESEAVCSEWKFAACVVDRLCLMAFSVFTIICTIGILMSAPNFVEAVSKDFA

[4] = target: T3, Neuronal acetylcholine receptor; alpha4/beta2 (Homo sapiens, UniProt P17787+P43681); test: Inhibition of nAChR alpha4beta2 (unknown origin) by electrophysiology assay; format: protein-complex assay
T3 sequence (P17787 whole entry): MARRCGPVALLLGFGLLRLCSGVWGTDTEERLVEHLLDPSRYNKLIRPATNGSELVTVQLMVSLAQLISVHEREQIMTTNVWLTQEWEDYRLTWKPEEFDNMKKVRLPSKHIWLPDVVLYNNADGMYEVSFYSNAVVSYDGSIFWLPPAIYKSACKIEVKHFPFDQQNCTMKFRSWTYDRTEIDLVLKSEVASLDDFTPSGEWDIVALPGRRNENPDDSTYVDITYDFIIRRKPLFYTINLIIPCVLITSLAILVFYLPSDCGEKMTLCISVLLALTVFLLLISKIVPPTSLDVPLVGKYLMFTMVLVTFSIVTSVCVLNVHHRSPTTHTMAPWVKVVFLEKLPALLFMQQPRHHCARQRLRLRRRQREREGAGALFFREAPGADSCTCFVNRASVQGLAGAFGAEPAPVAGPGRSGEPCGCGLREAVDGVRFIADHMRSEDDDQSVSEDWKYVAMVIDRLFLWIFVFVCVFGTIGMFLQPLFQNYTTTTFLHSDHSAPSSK
T3 sequence (P43681 whole entry): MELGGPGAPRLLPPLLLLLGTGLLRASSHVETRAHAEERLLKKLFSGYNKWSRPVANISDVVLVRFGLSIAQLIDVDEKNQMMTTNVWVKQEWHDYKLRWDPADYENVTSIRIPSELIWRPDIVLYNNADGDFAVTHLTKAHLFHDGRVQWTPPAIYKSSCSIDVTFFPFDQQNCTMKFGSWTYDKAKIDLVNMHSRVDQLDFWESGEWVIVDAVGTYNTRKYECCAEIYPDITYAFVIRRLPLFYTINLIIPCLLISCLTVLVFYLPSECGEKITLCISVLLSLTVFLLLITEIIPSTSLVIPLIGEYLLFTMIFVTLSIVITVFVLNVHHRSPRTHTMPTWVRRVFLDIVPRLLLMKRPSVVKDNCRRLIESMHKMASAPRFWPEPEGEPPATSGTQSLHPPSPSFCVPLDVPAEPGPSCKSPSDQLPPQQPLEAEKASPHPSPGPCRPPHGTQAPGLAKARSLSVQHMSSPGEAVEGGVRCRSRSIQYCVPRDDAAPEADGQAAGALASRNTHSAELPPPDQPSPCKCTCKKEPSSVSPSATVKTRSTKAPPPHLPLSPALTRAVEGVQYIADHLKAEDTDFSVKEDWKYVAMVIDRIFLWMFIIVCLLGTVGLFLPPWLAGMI

[5] = target: T1, Neuronal acetylcholine receptor; alpha3/beta4; test: Inhibition of alpha3beta4 nAChRs (unknown origin); format: protein-complex assay
[6] = target: T1, Neuronal acetylcholine receptor; alpha3/beta4; test: Displacement of [3H]imipramine from human alpha3beta4 nAChRs expressed in HEK293 cells assessed as inhibition constant incubated for 2 hrs by scintillation counter analysis; format: cell-based
[7] = Displacement of [3H]-DPDPE from calf caudate nucleus DOR receptor assessed as inhibition constant; format: tissue-based, Bos taurus
[8] = target: Mu-type opioid receptor (Bos taurus, UniProt P79350); test: Displacement of [3H]-DAGO from calf cortex MOR receptor assessed as inhibition constant; format: tissue-based
Sequence of Mu-type opioid receptor (P79350 whole entry): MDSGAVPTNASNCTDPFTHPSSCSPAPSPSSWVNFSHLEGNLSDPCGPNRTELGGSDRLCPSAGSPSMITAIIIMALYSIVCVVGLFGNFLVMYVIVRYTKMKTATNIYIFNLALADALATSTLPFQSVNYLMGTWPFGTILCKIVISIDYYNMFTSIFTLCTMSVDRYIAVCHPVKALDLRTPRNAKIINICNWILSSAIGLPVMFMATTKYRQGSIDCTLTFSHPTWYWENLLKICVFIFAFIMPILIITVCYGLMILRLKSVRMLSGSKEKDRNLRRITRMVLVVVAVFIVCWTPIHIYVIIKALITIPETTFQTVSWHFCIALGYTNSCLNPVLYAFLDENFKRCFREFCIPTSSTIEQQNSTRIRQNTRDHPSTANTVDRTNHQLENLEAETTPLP

[9] = target: T2, Neuronal acetylcholine receptor subunit alpha-7; test: Inhibition of nAChR alpha7 receptor (unknown origin) assessed as inhibition of calcium flux
[10] = target: Sigma intracellular receptor 2 (Bos taurus, UniProt Q3MHW7); test: Displacement of [3H]-DTG from calf hippocampus sigma 2 receptor assessed as inhibition constant; format: tissue-based
Sequence of Sigma intracellular receptor 2 (Q3MHW7 whole entry): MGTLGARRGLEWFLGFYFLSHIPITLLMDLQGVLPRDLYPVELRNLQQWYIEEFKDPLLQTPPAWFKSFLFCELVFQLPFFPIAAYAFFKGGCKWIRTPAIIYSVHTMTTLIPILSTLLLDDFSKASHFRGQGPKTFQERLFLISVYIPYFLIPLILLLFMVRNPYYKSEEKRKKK

[11] = target: T4, Muscarinic acetylcholine receptor M1 (Bos taurus, UniProt Q8WMX0); test: Displacement of [3H]-pirenzepine from calf cortex Muscarinic M1 receptor assessed as inhibition constant; format: tissue-based
T4 sequence (Q8WMX0 whole entry): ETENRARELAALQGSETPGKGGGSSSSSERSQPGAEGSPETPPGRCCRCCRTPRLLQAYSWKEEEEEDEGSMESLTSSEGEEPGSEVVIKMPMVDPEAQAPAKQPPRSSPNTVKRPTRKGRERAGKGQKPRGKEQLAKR

[12] = target: T3, Neuronal acetylcholine receptor; alpha4/beta2; test: Inhibition of nAChR alpha4beta2 receptor (unknown origin); format: protein-complex assay
[13] = target: T3, Neuronal acetylcholine receptor; alpha4/beta2; test: Antagonist activity at alpha4beta2 nAChR in HEK293 cells by voltage-clamp based electrophysiological method; format: cell-based
[14] = target: T1, Neuronal acetylcholine receptor; alpha3/beta4; test: Antagonist activity at recombinant alpha3beta4 nAChR in HEK293 cells by voltage-clamp based electrophysiological method; format: cell-based
[15] = Displacement of [3H]-GR-65,630 from 5-HT3 receptor in mouse NG-108 cells assessed as inhibition constant; format: cell-based; conditions: ng-108 cell
[16] = Displacement of [3H]-BTX-B from bovine cortex sodium channel assessed as inhibition constant; format: tissue-based, Bos taurus
[17] = target: T1, Neuronal acetylcholine receptor; alpha3/beta4; test: Antagonist activity at human alpha3beta4 nAChRs expressed in HEK293 cells assessed as inhibition of (+/-)-epibatidine-induced Ca+2 influx incubated for 5 mins by FLIPR analysis; format: cell-based
[18] = Displacement of [3H]-MK801 from bovine cortex NMDA receptor assessed as inhibition constant; format: tissue-based, Bos taurus
[19] = Displacement of [3H]-paroxetine from bovine brain stem 5-HT receptor assessed as inhibition constant; format: tissue-based, Bos taurus, Brainstem
[20] = target: T1, Neuronal acetylcholine receptor; alpha3/beta4; test: Displacement of [3H]Ibogaine from human alpha3beta4 nAChRs expressed in HEK293 cells assessed as inhibition constant incubated for 2 hrs by scintillation counter analysis; format: cell-based
[21] = target: T2, Neuronal acetylcholine receptor subunit alpha-7; test: Antagonist activity at nAChR alpha7 in human SH-SY5Y cells assessed as increase in intracellular calcium level preincubated for 10 mins followed by choline addition measured after 30 mins by FLIPR assay; format: cell-based
[22] = target: T1, Neuronal acetylcholine receptor; alpha3/beta4; test: Antagonist activity at nAChR alpha3beta4 in human SH-SY5Y cells assessed as increase in intracellular calcium level preincubated for 10 mins followed by nicotine addition measured after 30 mins by FLIPR assay; format: cell-based
[23] = target: Neuronal acetylcholine receptor; alpha4/beta2 (Rattus norvegicus, UniProt P09483+P12390); test: Antagonist activity at rat alpha4beta2 nACh receptor expressed in Xenopus oocyte by voltage-clamp based electrophysiological assay; format: cell-based
Sequence of Neuronal acetylcholine receptor; alpha4/beta2 (Rattus norvegicus, UniProt P09483+P12390) (P09483 whole entry): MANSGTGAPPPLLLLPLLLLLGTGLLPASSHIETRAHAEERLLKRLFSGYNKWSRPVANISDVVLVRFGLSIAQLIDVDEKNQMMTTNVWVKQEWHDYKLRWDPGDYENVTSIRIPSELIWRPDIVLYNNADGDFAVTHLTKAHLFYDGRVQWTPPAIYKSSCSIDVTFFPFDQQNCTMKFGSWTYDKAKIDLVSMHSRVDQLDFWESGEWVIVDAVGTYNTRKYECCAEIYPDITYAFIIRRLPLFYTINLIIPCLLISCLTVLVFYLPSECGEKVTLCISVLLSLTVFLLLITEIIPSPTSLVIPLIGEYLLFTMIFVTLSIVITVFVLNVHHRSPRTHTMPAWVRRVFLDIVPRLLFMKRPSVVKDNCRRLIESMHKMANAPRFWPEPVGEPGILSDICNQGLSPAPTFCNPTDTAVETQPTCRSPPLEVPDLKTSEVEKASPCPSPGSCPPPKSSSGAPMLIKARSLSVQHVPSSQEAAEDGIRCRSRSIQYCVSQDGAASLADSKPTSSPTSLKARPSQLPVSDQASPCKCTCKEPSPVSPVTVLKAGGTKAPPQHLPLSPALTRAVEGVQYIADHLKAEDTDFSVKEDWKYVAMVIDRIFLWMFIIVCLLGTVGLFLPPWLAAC
Sequence of Neuronal acetylcholine receptor; alpha4/beta2 (Rattus norvegicus, UniProt P09483+P12390) (P12390 whole entry): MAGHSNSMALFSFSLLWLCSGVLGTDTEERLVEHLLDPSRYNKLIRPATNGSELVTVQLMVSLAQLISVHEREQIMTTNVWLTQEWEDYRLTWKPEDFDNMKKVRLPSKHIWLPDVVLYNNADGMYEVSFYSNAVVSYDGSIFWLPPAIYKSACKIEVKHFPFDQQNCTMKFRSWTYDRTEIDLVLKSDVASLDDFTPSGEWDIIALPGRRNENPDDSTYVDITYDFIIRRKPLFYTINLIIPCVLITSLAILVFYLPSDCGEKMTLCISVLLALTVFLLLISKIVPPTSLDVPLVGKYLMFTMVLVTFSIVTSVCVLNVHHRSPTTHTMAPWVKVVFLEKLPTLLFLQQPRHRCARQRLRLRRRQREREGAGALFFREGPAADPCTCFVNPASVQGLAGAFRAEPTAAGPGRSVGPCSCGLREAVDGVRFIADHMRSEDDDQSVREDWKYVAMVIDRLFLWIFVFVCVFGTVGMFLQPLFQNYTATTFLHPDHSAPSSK

[24] = target: T2, Neuronal acetylcholine receptor subunit alpha-7; test: Antagonist activity at human alpha7 nACh receptor expressed in Xenopus oocyte by voltage-clamp based electrophysiological assay; format: cell-based
[25] = target: Neuronal acetylcholine receptor; alpha3/beta2 (Rattus norvegicus, UniProt P04757+P12390); test: Antagonist activity at rat alpha3beta2 nACh receptor expressed in Xenopus oocyte by voltage-clamp based electrophysiological assay; format: cell-based
[26] = target: Neuronal acetylcholine receptor; alpha3/beta4 (Rattus norvegicus, UniProt P04757+P12392); test: Antagonist activity at rat alpha3beta4 nACh receptor expressed in Xenopus oocyte by voltage-clamp based electrophysiological assay; format: cell-based

With `C[C@@H]1NC(=O)[C@H](Cc2ccccc2)NC(=O)[C@@H]2CSSC[C@H](NC(=O)CN)C(=O)N[C@@H](CSSC[C@@H](C(N)=O)NC(=O)[C@H](CC(=O)O)NC(=O)[C@@H]3CCCN3C(=O)[C@H](CC(N)=O)NC(=O)[C@H]([C@@H](C)O)NC1=O)C(=O)N[C@@H](CO)C(=O)N[C@@H](Cc1ccc(O)cc1)C(=O)N1CCC[C@H]1C(=O)N1CCC[C@H]1C(=O)N2` the IC50 [1] was greater than 100000 nM, the IC50 [2] was 770 nM and the IC50 [3] was greater than 100000 nM. The IC50 [4] was greater than 100000 nM.

Work on `CC(C)C[C@@H]1NC(=O)[C@H](C(C)C)NC(=O)[C@H](C)NC(=O)[C@@H]2CSSC[C@H](NC(=O)CN)C(=O)N[C@@H](CSSC[C@@H](C(=O)O)NC(=O)[C@H](Cc3ccc(O)cc3)NC1=O)C(=O)N[C@@H](CO)C(=O)N[C@@H]([C@@H](C)O)C(=O)N1CCC[C@H]1C(=O)N1CCC[C@H]1C(=O)N2` (H-GCCSTPPCAVLYC-OH; disulfide 2-8, 3-13) yielded an IC50 [5] of 27.7 nM.

`COCC[C@H]1C[C@H]2CN3CCc4c([nH]c5ccc(OC)cc45)[C@](C(=O)OC)(C2)[C@H]13` (racemic) showed a Ki [6] of 400 nM, a Ki [7] of 3.5 nM and a Ki [8] of 1.1 nM. It also gave an IC50 [9] of 34700 nM, a Ki [10] of 13 nM and a Ki [11] of 32 nM. For the same compound, the IC50 [12] was 6300 nM, the IC50 [13] was greater than 20000 nM and the IC50 [14] was 750 nM. The Ki [15] was 3.8 nM, the Ki [16] was 6.4 nM and the IC50 [17] was 1470 nM.

Compound `CC[C@H]1C[C@@H]2C[C@H]3c4[nH]c5ccc(OC)cc5c4CC[N@@](C2)[C@@H]13` has a Ki [18] of 3.1 nM, a Ki [7] greater than 10 nM and a Ki [8] of 2 nM. It also gave a Ki [10] of 0.4 nM, a Ki [11] of 16 nM and an IC50 [13] of 1000 nM. For the same compound, the IC50 [14] was 220 nM, the Ki [15] was 2.6 nM and the Ki [19] was 4.1 nM. For the same compound, the Ki [16] was 3.6 nM and the Ki [20] was 1.05 nM.

Work on `CC[C@H](C)[C@@H]1NC(=O)[C@H](CC(N)=O)NC(=O)[C@@H]2CCCN2C(=O)[C@H](CC(N)=O)NC(=O)[C@H](CC(C)C)NC(=O)[C@H](C(C)C)NC(=O)[C@H](CCCNC(=N)N)NC(=O)[C@@H]2CSSC[C@H](NC(=O)CNC(=O)[C@@H](N)CO)C(=O)N[C@@H](CSSC[C@@H](C(=O)O)NC1=O)C(=O)N[C@@H](CO)C(=O)N[C@@H](CC(N)=O)C(=O)N1CCC[C@H]1C(=O)N[C@@H](C)C(=O)N2` (H-SGCCSNPACRVLNPNIC-OH; disulfide 3-9, 4-17) yielded an IC50 [21] of 2570 nM and an IC50 [22] of 630 nM.

`CC[C@H](C)[C@H](NC(=O)[C@H](Cc1cnc[nH]1)NC(=O)[C@@H]1CCCN1C(=O)[C@H](CC(N)=O)NC(=O)[C@H](CC(N)=O)NC(=O)[C@@H](NC(=O)[C@H](CC(N)=O)NC(=O)[C@H](CS)NC(=O)[C@H](C)NC(=O)[C@@H]1CCCN1C(=O)[C@H](Cc1cnc[nH]1)NC(=O)[C@H](CO)NC(=O)[C@H](CS)NC(=O)[C@H](CS)NC(=O)CN)C(C)C)C(=O)N[C@@H](CS)C(=O)O` (H-GCCSHPACNVNNPHIC-OH) gave an IC50 [23] greater than 100000 nM, an IC50 [24] of 103 nM and an IC50 [25] of 33 nM. It also gave an IC50 [26] of 97 nM.

Reference: ChEMBL document CHEMBL5325394, “What We Have Gained from Ibogaine: α3β4 Nicotinic Acetylcholine Receptor Inhibitors as Treatments for Substance Use Disorders” (J Med Chem, 2023)
